In ChEMBL document CHEMBL1144878, “N-(omega-(4-(2-methoxyphenyl)piperazin-1-yl)alkyl)carboxamides as dopamine D2 and D3 receptor ligands” (J Med Chem, 2003) one finds Ki, Intrinsic activity and EC50 data, which are given here for 21 molecules.

Molecules are shown by their SMILES.

The target in one experiment is D(2) dopamine receptor (Homo sapiens, UniProt P14416). The experiment in a line: biochemical.
Experiment [1] addresses T1, D(3) dopamine receptor (Homo sapiens, UniProt P35462). Nature of the experiment: biochemical.
Target sequence in this assay (P35462 whole entry): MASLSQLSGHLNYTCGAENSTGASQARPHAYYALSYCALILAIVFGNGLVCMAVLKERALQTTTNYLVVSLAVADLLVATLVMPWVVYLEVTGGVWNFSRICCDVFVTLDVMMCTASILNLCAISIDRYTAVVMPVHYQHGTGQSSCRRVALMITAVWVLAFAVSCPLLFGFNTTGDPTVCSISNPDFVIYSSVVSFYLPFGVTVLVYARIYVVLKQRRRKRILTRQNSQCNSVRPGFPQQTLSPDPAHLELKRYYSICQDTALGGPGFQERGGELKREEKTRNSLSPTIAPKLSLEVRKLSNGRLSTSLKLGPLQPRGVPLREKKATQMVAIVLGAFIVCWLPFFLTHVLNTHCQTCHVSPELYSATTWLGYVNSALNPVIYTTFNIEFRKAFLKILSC
Description: Binding affinity for human dopamine receptor D3 by displacing [125I]iodosulpiride expressed in CHO cells
The test system of experiment [2] is D(3) dopamine receptor (Homo sapiens). The experiment in a line: Intrinsic activity for Dopamine receptor D3 was determined.
Experiment [3] has as its target D(3) dopamine receptor (Homo sapiens). The experiment in a line: Effective concentration for Dopamine receptor D3 was determined.
In experiment [4] the target is T1, D(3) dopamine receptor. Nature of the experiment: Effective concentration for Dopamine receptor D3 was determined. The experiment is classed as functional.
Target sequence in this assay (P35462 whole entry, looked up): as the sequence (P35462 whole entry) above

D(2) dopamine receptor, sequence (P14416 whole entry): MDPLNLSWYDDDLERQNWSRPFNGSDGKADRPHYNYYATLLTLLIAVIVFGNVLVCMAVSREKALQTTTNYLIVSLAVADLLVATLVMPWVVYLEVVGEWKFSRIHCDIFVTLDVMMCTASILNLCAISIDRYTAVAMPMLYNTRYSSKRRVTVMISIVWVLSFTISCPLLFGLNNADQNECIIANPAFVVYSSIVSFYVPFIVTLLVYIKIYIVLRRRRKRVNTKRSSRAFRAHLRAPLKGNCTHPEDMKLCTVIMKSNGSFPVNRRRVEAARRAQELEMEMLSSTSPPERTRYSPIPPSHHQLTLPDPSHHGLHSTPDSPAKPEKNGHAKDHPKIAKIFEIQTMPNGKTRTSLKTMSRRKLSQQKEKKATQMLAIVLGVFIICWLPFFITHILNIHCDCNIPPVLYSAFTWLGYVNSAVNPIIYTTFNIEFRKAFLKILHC
Description for D(2) dopamine receptor: Binding affinity for human dopamine receptor D2 by displacing [125I]iodosulpiride expressed in CHO cells

A word on the Ki: it is a dissociation constant, usually derived from enzyme kinetics or from competition with a known ligand. Usually EC50 stands for the concentration at which the effect is half-maximal. High values mean weaker potency, low ones greater potency. `COc1ccccc1N1CCN(CCCCNC(=O)c2ccc(I)cc2)CC1`: the Ki was 146 nM at D(2) dopamine receptor and 3.9 nM on D(3) dopamine receptor [1]. In experiment [2], the Intrinsic activity came out at 0.5. In experiment [3], this molecule yielded an EC50 of 1.2 nM.

Consider `COc1ccccc1N1CCN(CCCCNC(=O)/C=C/c2ccc(Cl)cc2)CC1`, for which the midpoint of the response on D(3) dopamine receptor [4], the EC50, lay at 10 nM. Further, the Ki is 22.6 nM on D(2) dopamine receptor and 0.44 nM on D(3) dopamine receptor [1].

As to `COc1ccccc1N1CCN(CCCCNC(=O)Cc2ccc3ccccc3c2)CC1`, the Ki stood at 35 nM on D(2) dopamine receptor and 32 nM at D(3) dopamine receptor [1].

Consider `COc1ccccc1N1CCN(CCCCNC(=O)/C=C/c2ccc(-c3ccccc3)cc2)CC1`, for which the figures for the Ki at D(2) dopamine receptor and on D(3) dopamine receptor [1] were 37 nM and 16 nM, respectively.

As to `COc1ccccc1N1CCN(CCCCNC(=O)/C=C/c2ccc(Cl)cc2Cl)CC1`, the Ki at D(2) dopamine receptor turned out to be 21 nM; at D(3) dopamine receptor [1], 1.28 nM.

As for `COc1ccccc1N1CCN(CCCCNC(=O)/C=C/c2ccc(C=O)cc2)CC1`, the Ki on D(2) dopamine receptor worked out at 11.5 nM; at D(3) dopamine receptor [1] it was 0.73 nM.

On to `COc1ccccc1N1CCN(CCCCN2C(=O)c3ccccc3C2=O)CC1`, for which the Ki came to 50 nM at D(2) dopamine receptor and 38 nM on D(3) dopamine receptor [1].

`COc1ccccc1N1CCN(CCCCNC(=O)/C=C/c2ccsc2)CC1`: the Ki worked out at 13 nM on D(2) dopamine receptor and 0.64 nM at D(3) dopamine receptor [1].

At D(3) dopamine receptor [4], `COc1ccccc1N1CCN(CCCCNC(=O)c2cc3ccccc3cn2)CC1` registered an EC50 of 2.5 nM. Moreover, the Ki came to 27.5 nM on D(2) dopamine receptor and 1.48 nM on D(3) dopamine receptor [1].

For `COc1ccccc1N1CCN(CCCCNC(=O)c2ccc(C(=O)c3ccccc3)cc2)CC1`, the values for the Ki on D(2) dopamine receptor and on D(3) dopamine receptor [1] were 63 nM and 2.5 nM, respectively.

Turning to `COc1ccccc1N1CCN(CCCCNC(=O)C2(c3ccc(Cl)cc3)CCCC2)CC1`, the Ki on D(2) dopamine receptor is 56 nM; at D(3) dopamine receptor [1], 42 nM.

For the molecule `COc1ccccc1N1CCN(CCCCNC(=O)/C=C/c2cccc(Cl)c2)CC1`, the Ki on D(2) dopamine receptor worked out at 20 nM; at D(3) dopamine receptor [1], 0.46 nM.

Regarding `COc1ccccc1N1CCN(CCCCNC(=O)c2cccc(I)c2)CC1`, the Ki on D(2) dopamine receptor came to 68 nM; at D(3) dopamine receptor [1], 9.2 nM.

In the case of `COc1ccccc1N1CCN(Cc2ccccc2CNC(=O)c2ccc3ccccc3c2)CC1`, the inhibition constant (Ki) on D(2) dopamine receptor was 28.4 nM; on D(3) dopamine receptor [1], 750 nM.

With `COc1ccccc1N1CCN(CCCCNC(=O)c2ccc(C(C)=O)cc2)CC1`, the results for the Ki at D(2) dopamine receptor and on D(3) dopamine receptor [1] were 17.5 nM and 1 nM, respectively.

For `COc1ccccc1N1CCN(CCCCNC(=O)c2nccc3ccccc23)CC1`, the Ki at D(2) dopamine receptor worked out at 20.9 nM; at D(3) dopamine receptor [1], 9.62 nM.

With `COc1ccccc1N1CCN(CCCCNC(=O)c2ccc(-c3ccc(Cl)cc3)o2)CC1`, the Ki at D(2) dopamine receptor amounted to 200 nM; at D(3) dopamine receptor [1] it was 6.3 nM.

Consider `COc1ccccc1N1CCN(CCCCNC(=O)/C=C/c2ccc3ccccc3c2)CC1`, for which the Ki was determined as 32 nM at D(2) dopamine receptor and 0.68 nM on D(3) dopamine receptor [1].

For the molecule `COc1ccccc1N1CCN(CCCNC(=O)Cc2ccc3ccccc3c2)CC1`, the inhibition constant (Ki) on D(2) dopamine receptor came out at 56 nM; on D(3) dopamine receptor [1], 140 nM.

As for `COc1ccccc1N1CCN(CCCCNC(=O)c2cccc3c2-c2ccccc2C3=O)CC1`, the Ki turned out to be 18 nM at D(2) dopamine receptor and 2.96 nM at D(3) dopamine receptor [1].

`COc1ccccc1N1CCN(CCCNC(=O)c2ccc(I)cc2)CC1`: the Ki was 117 nM at D(2) dopamine receptor and 396 nM at D(3) dopamine receptor [1].
